Patent publication US12522583B2, “Benzimidazole derivatives and aza-benzimidazole derivatives as Janus kinase 2 inhibitors and uses thereof” (Dana-Farber Cancer Institute, Inc., priority 2018, dated 2026)

Legend:
Test in all cases: KINOMEscan
Type in all cases: binding
STK39 = STK39 (Homo sapiens (Human), UniProt Q9UEW8); settings: read-out: percent control
Description: (§1) Example 2. In Vitro Kinase Selectivity Profiling of the Compounds of the Present Disclosure

CDKL1 = CDKL1 (Homo sapiens (Human), UniProt Q00532); settings: read-out: percent control
Description: as §1

MLCK = MLCK (Homo sapiens (Human), UniProt Q32MK0); settings: read-out: percent control
Description: as §1

MERTK = MERTK (Homo sapiens (Human), UniProt Q12866); settings: read-out: percent control
Description: as §1

BRK = BRK (Homo sapiens (Human), UniProt Q13882); settings: read-out: percent control
Description: as §1

FLT3(ITD) = settings: 1 μM
Description: as §1

CDK5 = CDK5 (Homo sapiens (Human), UniProt Q00535); settings: read-out: percent control
Description: as §1

EGFR(T790M) = EGFR(T790M) (Homo sapiens (Human), UniProt P00533, T790M); settings: read-out: percent control
Description: as §1

EGFR(L858R, T790M) = EGFR(L858R, T790M) (Homo sapiens (Human), UniProt P00533, L858R/T790M); settings: read-out: percent control
Description: as §1

IRAK3 = IRAK3 (Homo sapiens (Human), UniProt Q9Y616); settings: read-out: percent control
Description: as §1

MARK3 = MARK3 (Homo sapiens (Human), UniProt P27448); settings: read-out: percent control
Description: as §1

MST1 = MST1 (Homo sapiens (Human), UniProt Q13043); settings: read-out: percent control
Description: as §1

CLK2 = CLK2 (Homo sapiens (Human), UniProt P49760); settings: read-out: percent control
Description: as §1

PIK3CA(I800L) = PIK3CA(I800L) (Homo sapiens (Human), UniProt P42336, I800L); settings: read-out: percent control
Description: as §1

EGFR = EGFR (Homo sapiens (Human), UniProt P00533); settings: read-out: percent control
Description: as §1

ABL1-phosphorylated = ABL1-phosphorylated (Homo sapiens (Human), UniProt P00519); settings: read-out: percent control
Description: as §1

PAK7 = PAK7 (Homo sapiens (Human), UniProt Q9P286); settings: read-out: percent control
Description: as §1

MYO3B = MYO3B (Homo sapiens (Human), UniProt Q8WXR4); settings: read-out: percent control
Description: as §1

LKB1 = LKB1 (Homo sapiens (Human), UniProt Q15831); settings: read-out: percent control
Description: as §1

PFTK1 = PFTK1 (Homo sapiens (Human), UniProt O94921); settings: read-out: percent control
Description: as §1

MET(M1250T) = MET(M1250T) (Homo sapiens (Human), UniProt P08581, M1250T); settings: read-out: percent control
Description: as §1

[1] = target: JAK1(JH1domain-catalytic) (Homo sapiens (Human), UniProt P23458); settings: read-out: percent control
Description: as §1

PIK3C2G = PIK3C2G (Homo sapiens (Human), UniProt O75747); settings: read-out: percent control
Description: as §1

ABL1-nonphosphorylated = ABL1-nonphosphorylated (Homo sapiens (Human), UniProt P00519); settings: read-out: percent control
Description: as §1

ACVR2A = ACVR2A (Homo sapiens (Human), UniProt P27037); settings: read-out: percent control
Description: as §1

FLT3(D835H) = FLT3(D835H) (Homo sapiens (Human), UniProt P36888, D835H); settings: read-out: percent control
Description: as §1

TLK1 = TLK1 (Homo sapiens (Human), UniProt Q9UKI8); settings: read-out: percent control
Description: as §1

NEK9 = NEK9 (Homo sapiens (Human), UniProt Q8TD19); settings: read-out: percent control
Description: as §1

FLT3(N841I) = FLT3(N841I) (Homo sapiens (Human), UniProt P36888, N841I); settings: read-out: percent control
Description: as §1

FLT4 = FLT4 (Homo sapiens (Human), UniProt P35916); settings: read-out: percent control
Description: as §1

[2] = target: JAK2(JH1domain-catalytic) (Homo sapiens (Human), UniProt O60674); settings: read-out: percent control
Description: as §1

PKMYT1 = PKMYT1 (Homo sapiens (Human), UniProt Q99640); settings: read-out: percent control
Description: as §1

ACVR1 = ACVR1 (Homo sapiens (Human), UniProt Q04771); settings: read-out: percent control
Description: as §1

CDK4 = CDK4 (Homo sapiens (Human), UniProt P11802); settings: read-out: percent control
Description: as §1

ULK3 = ULK3 (Homo sapiens (Human), UniProt Q6PHR2); settings: read-out: percent control
Description: as §1

MAP3K3 = MAP3K3 (Homo sapiens (Human), UniProt Q99759); settings: read-out: percent control
Description: as §1

CSF1R-autoinhibited = CSF1R-autoinhibited (Homo sapiens (Human), UniProt P07333); settings: read-out: percent control
Description: as §1

PIK3CA(H1047Y) = PIK3CA(H1047Y) (Homo sapiens (Human), UniProt P42336, H1047Y); settings: read-out: percent control
Description: as §1

TBK1 = TBK1 (Homo sapiens (Human), UniProt Q9UHD2); settings: read-out: percent control
Description: as §1

MAP4K3 = MAP4K3 (Homo sapiens (Human), UniProt Q8IVH8); settings: read-out: percent control
Description: as §1

Chain of BRK (Q13882 whole entry): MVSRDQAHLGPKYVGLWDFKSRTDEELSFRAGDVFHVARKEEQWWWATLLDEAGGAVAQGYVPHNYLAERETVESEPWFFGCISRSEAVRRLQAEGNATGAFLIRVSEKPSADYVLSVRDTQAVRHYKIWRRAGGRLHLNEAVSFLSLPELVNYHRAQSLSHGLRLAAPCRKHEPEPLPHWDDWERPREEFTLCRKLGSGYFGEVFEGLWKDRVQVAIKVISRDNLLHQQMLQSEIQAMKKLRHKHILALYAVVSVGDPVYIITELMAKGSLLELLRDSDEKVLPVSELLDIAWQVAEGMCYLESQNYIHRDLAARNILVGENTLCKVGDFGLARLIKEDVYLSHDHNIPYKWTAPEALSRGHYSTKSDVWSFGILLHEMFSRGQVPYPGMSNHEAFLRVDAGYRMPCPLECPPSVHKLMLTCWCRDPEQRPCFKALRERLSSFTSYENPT
Chain of PFTK1 (O94921 whole entry): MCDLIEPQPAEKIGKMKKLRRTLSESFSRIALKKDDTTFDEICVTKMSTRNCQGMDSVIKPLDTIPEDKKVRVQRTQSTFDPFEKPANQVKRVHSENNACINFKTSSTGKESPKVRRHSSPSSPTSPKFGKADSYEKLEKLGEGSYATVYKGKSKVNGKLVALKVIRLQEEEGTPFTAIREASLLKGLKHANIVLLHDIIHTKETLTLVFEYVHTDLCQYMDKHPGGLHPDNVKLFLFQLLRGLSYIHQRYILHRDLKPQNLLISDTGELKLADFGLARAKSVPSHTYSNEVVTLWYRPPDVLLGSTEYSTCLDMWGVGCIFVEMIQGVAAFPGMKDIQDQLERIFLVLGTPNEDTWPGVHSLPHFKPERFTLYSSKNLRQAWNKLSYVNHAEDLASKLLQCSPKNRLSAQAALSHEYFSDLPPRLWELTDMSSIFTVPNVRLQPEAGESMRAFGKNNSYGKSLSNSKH
Chain of LKB1 (Q15831 whole entry): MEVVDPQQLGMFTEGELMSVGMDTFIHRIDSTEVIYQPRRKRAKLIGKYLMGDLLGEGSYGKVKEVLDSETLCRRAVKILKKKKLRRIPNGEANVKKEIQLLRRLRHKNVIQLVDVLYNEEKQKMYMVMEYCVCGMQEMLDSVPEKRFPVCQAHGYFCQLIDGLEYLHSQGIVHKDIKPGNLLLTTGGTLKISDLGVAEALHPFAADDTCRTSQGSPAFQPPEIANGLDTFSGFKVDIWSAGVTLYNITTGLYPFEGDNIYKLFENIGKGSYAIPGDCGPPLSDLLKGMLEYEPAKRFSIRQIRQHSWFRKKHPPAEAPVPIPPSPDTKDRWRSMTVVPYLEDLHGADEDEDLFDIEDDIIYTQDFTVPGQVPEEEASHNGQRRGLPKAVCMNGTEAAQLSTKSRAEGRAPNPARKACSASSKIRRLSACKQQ
Chain of CDKL1 (Q00532 whole entry): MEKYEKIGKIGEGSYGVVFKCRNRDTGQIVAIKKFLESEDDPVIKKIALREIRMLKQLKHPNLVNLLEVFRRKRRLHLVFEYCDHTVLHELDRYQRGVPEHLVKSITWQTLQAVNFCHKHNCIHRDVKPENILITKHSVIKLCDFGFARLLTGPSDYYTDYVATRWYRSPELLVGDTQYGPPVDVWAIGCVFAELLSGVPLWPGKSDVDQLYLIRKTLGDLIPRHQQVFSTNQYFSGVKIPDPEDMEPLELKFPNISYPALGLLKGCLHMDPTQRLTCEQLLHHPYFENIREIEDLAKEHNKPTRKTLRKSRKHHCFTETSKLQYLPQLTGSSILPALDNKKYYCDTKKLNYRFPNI
Chain of PIK3CA(H1047Y) (P42336 whole entry H1047Y): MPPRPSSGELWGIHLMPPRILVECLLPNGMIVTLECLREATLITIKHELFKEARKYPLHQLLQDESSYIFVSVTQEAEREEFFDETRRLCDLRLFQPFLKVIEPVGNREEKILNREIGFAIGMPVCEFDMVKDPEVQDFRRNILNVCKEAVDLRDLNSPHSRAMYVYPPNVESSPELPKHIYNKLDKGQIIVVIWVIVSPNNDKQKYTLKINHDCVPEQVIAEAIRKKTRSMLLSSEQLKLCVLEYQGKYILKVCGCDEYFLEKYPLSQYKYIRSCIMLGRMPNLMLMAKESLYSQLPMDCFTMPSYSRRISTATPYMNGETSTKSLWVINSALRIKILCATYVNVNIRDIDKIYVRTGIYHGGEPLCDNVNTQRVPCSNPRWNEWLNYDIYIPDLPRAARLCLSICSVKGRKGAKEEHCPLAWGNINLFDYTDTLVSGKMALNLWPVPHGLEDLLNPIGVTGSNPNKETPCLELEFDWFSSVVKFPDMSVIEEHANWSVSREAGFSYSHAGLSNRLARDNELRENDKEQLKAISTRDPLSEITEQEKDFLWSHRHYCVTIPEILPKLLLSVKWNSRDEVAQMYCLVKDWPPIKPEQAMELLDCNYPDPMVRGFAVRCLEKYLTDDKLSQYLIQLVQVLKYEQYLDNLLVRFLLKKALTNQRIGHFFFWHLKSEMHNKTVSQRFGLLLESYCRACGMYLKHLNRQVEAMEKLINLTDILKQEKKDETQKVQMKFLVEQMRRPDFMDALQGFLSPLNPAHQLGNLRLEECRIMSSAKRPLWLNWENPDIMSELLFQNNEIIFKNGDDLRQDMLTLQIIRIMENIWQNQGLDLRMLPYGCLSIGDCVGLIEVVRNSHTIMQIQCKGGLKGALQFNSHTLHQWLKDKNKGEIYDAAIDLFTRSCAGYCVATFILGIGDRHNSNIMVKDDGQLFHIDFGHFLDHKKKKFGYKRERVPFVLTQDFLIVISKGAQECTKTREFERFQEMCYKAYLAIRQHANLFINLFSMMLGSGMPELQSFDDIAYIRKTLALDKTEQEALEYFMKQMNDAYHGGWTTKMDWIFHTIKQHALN
Chain of PIK3C2G (O75747 whole entry): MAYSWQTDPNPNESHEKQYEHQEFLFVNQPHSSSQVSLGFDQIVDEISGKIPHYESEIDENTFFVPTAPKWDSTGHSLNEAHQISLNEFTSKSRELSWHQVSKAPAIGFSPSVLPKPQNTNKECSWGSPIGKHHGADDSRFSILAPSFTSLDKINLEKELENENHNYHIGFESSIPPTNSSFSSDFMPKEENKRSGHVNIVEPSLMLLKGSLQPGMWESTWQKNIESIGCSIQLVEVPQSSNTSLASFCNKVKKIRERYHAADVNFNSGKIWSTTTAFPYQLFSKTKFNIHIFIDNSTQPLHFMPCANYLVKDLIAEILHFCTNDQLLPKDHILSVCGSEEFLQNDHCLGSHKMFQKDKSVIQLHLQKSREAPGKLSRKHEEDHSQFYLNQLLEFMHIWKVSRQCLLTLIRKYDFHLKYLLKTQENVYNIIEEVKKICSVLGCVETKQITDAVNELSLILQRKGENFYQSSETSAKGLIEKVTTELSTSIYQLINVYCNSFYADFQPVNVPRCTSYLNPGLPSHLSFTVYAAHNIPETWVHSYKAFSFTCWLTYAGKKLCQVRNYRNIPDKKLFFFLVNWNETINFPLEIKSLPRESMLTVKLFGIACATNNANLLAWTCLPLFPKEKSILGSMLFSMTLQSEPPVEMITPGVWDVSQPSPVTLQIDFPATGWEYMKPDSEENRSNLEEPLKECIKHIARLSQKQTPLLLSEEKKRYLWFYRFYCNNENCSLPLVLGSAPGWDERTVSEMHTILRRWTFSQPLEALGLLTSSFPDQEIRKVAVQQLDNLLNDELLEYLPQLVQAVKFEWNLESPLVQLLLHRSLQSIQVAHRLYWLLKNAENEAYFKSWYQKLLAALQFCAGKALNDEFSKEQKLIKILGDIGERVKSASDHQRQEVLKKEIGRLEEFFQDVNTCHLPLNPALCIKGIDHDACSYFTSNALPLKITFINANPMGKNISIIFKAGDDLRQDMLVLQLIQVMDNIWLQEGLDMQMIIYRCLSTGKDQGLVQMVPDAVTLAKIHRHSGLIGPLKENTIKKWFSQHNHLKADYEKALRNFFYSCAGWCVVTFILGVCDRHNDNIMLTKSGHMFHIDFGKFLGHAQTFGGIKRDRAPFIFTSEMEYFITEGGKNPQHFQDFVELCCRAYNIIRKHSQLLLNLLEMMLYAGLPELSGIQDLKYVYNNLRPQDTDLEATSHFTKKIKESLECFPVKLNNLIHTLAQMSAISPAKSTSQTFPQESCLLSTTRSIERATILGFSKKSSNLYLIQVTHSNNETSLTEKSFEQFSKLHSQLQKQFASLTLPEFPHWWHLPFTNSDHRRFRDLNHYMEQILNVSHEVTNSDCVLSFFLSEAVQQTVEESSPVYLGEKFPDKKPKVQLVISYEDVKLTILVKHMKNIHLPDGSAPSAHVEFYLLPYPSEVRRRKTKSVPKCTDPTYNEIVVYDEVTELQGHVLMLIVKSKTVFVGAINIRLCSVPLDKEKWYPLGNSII
Chain of MAP3K3 (Q99759 whole entry): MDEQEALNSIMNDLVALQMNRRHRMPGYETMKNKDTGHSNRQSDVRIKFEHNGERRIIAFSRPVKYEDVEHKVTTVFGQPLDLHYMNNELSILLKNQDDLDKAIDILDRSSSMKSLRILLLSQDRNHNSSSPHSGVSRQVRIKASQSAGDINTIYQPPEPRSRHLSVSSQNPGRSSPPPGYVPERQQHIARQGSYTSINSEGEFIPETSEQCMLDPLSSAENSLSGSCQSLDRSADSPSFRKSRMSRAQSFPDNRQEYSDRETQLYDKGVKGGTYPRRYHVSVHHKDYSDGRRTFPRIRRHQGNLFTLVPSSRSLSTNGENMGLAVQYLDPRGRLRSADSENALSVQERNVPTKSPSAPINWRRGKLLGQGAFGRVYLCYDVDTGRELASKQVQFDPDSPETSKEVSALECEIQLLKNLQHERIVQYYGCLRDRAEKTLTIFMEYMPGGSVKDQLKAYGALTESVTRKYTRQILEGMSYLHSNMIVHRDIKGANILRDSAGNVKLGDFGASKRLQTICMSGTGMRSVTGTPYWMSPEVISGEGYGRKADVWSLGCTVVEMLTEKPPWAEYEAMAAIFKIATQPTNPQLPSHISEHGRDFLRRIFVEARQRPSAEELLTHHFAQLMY
Chain of PIK3CA(I800L) (P42336 whole entry I800L): as the sequence (P42336 whole entry H1047Y) above, with I800L, Y1047H counted along it

SMILES | remaining binding at 1 µM (STK39) [%] | remaining binding at 1 µM (CDKL1) [%] | remaining binding at 1 µM (MLCK) [%] | remaining binding at 1 µM (MERTK) [%] | remaining binding at 1 µM (BRK) [%] | percent control (FLT3(ITD)) [%] | remaining binding at 1 µM (CDK5) [%] | remaining binding at 1 µM (EGFR(T790M)) [%] | remaining binding at 1 µM (EGFR(L858R, T790M)) [%] | remaining binding at 1 µM (IRAK3) [%] | remaining binding at 1 µM (MARK3) [%] | remaining binding at 1 µM (MST1) [%] | remaining binding at 1 µM (CLK2) [%] | remaining binding at 1 µM (PIK3CA(I800L)) [%] | remaining binding at 1 µM (EGFR) [%] | remaining binding at 1 µM (ABL1-phosphorylated) [%] | remaining binding at 1 µM (PAK7) [%] | remaining binding at 1 µM (MYO3B) [%] | remaining binding at 1 µM (LKB1) [%] | remaining binding at 1 µM (PFTK1) [%] | also measured
CCN1CCN(Cc2ccc(Nc3nc4ccc(Oc5ccnc(NC(C)=O)c5)cc4n3C)cc2C(F)(F)F)CC1 [Compound I-2] | 62 | 84 | 100 | 32 | 100 | 24 | 97 | 96 | 100 | 91 | 87 | 93 | 64 | 75 | 79 | 23 | 86 | 87 | 40 | 94 | remaining binding at 1 µM (MET(M1250T)): 63%; remaining binding at 1 µM [1]: 30%; remaining binding at 1 µM (PIK3C2G): 80%; remaining binding at 1 µM (ABL1-nonphosphorylated): 0.3%; remaining binding at 1 µM (ACVR2A): 100%; remaining binding at 1 µM (FLT3(D835H)): 47%; remaining binding at 1 µM (TLK1): 87%; remaining binding at 1 µM (NEK9): 87%; remaining binding at 1 µM (FLT3(N841I)): 11%; remaining binding at 1 µM (FLT4): 0.5%; remaining binding at 1 µM [2]: 16%; remaining binding at 1 µM (PKMYT1): 91%; remaining binding at 1 µM (ACVR1): 99%; remaining binding at 1 µM (CDK4): 94%; remaining binding at 1 µM (ULK3): 92%; remaining binding at 1 µM (MAP3K3): 16%; remaining binding at 1 µM (CSF1R-autoinhibited): 52%; remaining binding at 1 µM (PIK3CA(H1047Y)): 62%; remaining binding at 1 µM (TBK1): 73%; remaining binding at 1 µM (MAP4K3): 71%
CCN1CCN(Cc2ccc(Nc3nc4ccc(Oc5ccnc(NC(C)=O)c5)c(C)c4n3C)cc2C(F)(F)F)CC1 [Compound I-6, N-(4-(2-(4-((4-ethylpiperazin-1-yl)methyl)-3-(trifluoromethyl)phenylamino)-1,7-dimethyl-1H-benzo[d]imidazol-6-yloxy)pyridin-2-yl)acetamide] | 93 | 87 | 97 | 59 | 89 | 11 | 90 | 83 | 100 | 91 | 86 | 100 | 91 | 98 | 100 | 11 | 16 | 89 | 91 | 61 | remaining binding at 1 µM (MET(M1250T)): 33%; remaining binding at 1 µM [1]: 40%; remaining binding at 1 µM (PIK3C2G): 86%; remaining binding at 1 µM (ABL1-nonphosphorylated): 0.05%; remaining binding at 1 µM (ACVR2A): 100%; remaining binding at 1 µM (FLT3(D835H)): 24%; remaining binding at 1 µM (TLK1): 93%; remaining binding at 1 µM (NEK9): 68%; remaining binding at 1 µM (FLT3(N841I)): 14%; remaining binding at 1 µM (FLT4): 0.7%; remaining binding at 1 µM [2]: 29%; remaining binding at 1 µM (PKMYT1): 90%; remaining binding at 1 µM (ACVR1): 100%; remaining binding at 1 µM (CDK4): 92%; remaining binding at 1 µM (ULK3): 79%; remaining binding at 1 µM (MAP3K3): 0.95%; remaining binding at 1 µM (CSF1R-autoinhibited): 68%; remaining binding at 1 µM (PIK3CA(H1047Y)): 86%; remaining binding at 1 µM (TBK1): 100%; remaining binding at 1 µM (MAP4K3): 74%
